The kinase profiling compilation of Christmann-Franck et al. (2016)

Legend:
Experiment in all cases: KINOMEscan competition binding
Details in all cases: compound 10.0 µM
RPS6KA3 KD1 (human) = RPS6KA3 KD1 (human) (UniProt P51812)
MYLK4 (human) = MYLK4 (human) (UniProt Q86YV6)
TEC (human) = TEC (human) (UniProt P42680)
ABL2 (human) = ABL2 (human) (UniProt P42684)
[1] = test system: ABL1 (human), P00519 [M351T]
MAP4K4 (human) = MAP4K4 (human) (UniProt O95819)
CIT (human) = CIT (human) (UniProt O14578)
PAK7 (human) = PAK7 (human) (UniProt Q9P286)
CSNK1G2 (human) = CSNK1G2 (human) (UniProt P78368)
AXL (human) = AXL (human) (UniProt P30530)
STK17B (human) = STK17B (human) (UniProt O94768)
MAPK9 (human) = MAPK9 (human) (UniProt P45984)
BRSK2 (human) = BRSK2 (human) (UniProt Q8IWQ3)
MAP4K5 (human) = MAP4K5 (human) (UniProt Q9Y4K4)
HCK (human) = HCK (human) (UniProt P08631)
CDK9 (human) = CDK9 (human) (UniProt P50750)
EPHA3 (human) = EPHA3 (human) (UniProt P29320)
MAP2K2 (human) = MAP2K2 (human) (UniProt P36507)
IRAK3 (human) = IRAK3 (human) (UniProt Q9Y616)
CLK3 (human) = CLK3 (human) (UniProt P49761)
ERBB2 (human) = ERBB2 (human) (UniProt P04626)
YES1 (human) = YES1 (human) (UniProt P07947)
INSRR (human) = INSRR (human) (UniProt P14616)
PRKCQ (human) = PRKCQ (human) (UniProt Q04759)
SRPK2 (human) = SRPK2 (human) (UniProt P78362)
BLK (human) = BLK (human) (UniProt P51451)
NTRK3 (human) = NTRK3 (human) (UniProt Q16288)
MINK1 (human) = MINK1 (human) (UniProt Q8N4C8)
SRC (human) = SRC (human) (UniProt P12931)
WEE2 (human) = WEE2 (human) (UniProt P0C1S8)
SRMS (human) = SRMS (human) (UniProt Q9H3Y6)
PRKD3 (human) = PRKD3 (human) (UniProt O94806)
PRKX (human) = PRKX (human) (UniProt P51817)
PKN1 (human) = PKN1 (human) (UniProt Q16512)
PRKCE (human) = PRKCE (human) (UniProt Q02156)
BMPR1B (human) = BMPR1B (human) (UniProt O00238)
GAK (human) = GAK (human) (UniProt O14976)
PRKG2 (human) = PRKG2 (human) (UniProt Q13237)
STK33 (human) = STK33 (human) (UniProt Q9BYT3)
STK24 (human) = STK24 (human) (UniProt Q9Y6E0)

Chain of AXL (human) (P30530 whole entry, looked up): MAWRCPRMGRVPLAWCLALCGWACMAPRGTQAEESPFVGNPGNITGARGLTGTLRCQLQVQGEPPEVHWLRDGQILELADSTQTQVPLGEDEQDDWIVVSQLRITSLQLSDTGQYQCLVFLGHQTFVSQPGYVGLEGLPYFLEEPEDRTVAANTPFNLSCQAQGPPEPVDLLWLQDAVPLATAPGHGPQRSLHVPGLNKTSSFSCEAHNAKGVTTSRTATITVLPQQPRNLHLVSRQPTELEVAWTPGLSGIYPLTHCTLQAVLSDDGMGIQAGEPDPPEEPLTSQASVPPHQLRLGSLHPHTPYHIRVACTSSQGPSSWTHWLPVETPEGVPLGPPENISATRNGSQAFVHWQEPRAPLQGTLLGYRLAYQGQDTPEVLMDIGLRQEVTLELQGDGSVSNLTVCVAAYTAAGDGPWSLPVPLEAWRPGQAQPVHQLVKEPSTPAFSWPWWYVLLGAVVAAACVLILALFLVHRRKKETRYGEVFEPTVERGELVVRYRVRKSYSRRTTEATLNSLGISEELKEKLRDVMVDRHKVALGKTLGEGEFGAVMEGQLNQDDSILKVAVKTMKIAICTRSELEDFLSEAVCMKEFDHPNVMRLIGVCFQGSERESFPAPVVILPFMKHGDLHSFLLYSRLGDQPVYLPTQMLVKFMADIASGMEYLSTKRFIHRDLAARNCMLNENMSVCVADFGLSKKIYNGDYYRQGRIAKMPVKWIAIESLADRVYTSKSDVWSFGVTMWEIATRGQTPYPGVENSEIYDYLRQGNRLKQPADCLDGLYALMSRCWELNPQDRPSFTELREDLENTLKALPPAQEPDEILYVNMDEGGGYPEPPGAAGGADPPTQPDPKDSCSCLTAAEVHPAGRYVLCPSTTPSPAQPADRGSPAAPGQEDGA
Chain of YES1 (human) (P07947 whole entry, looked up): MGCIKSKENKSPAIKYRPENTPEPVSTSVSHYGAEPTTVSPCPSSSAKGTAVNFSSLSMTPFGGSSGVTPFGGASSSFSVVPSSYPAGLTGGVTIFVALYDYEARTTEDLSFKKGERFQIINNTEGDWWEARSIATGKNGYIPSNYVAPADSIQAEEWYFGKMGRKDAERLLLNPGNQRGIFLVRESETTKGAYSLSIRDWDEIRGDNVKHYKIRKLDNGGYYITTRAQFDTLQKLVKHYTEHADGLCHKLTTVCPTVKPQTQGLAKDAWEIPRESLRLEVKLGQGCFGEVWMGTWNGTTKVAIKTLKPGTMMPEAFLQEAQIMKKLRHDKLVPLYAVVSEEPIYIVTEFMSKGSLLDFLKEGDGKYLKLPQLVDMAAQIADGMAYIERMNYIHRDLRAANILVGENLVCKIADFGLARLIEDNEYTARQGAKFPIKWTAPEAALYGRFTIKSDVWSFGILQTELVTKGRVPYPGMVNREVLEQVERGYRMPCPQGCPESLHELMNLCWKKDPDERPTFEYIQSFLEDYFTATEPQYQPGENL
Chain of PAK7 (human) (Q9P286 whole entry, looked up): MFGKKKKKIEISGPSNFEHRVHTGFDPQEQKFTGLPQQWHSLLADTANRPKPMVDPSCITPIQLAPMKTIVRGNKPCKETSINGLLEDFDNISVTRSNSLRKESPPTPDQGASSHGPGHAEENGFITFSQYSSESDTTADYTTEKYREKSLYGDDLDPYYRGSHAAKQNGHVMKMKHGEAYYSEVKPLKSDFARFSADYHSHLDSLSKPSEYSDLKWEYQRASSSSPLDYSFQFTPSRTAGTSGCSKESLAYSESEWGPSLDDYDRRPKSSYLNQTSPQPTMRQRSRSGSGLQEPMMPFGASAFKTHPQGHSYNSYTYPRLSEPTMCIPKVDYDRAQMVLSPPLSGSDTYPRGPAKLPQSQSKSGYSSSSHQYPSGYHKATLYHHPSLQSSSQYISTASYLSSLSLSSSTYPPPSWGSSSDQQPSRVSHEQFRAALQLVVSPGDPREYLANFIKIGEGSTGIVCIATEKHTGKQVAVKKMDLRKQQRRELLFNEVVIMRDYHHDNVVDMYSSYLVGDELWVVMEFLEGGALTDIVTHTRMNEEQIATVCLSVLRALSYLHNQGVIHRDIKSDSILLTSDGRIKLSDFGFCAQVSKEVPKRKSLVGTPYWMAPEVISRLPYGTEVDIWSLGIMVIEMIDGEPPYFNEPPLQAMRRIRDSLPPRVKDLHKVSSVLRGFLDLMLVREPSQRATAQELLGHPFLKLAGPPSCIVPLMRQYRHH
Chain of CIT (human) (O14578 whole entry, looked up): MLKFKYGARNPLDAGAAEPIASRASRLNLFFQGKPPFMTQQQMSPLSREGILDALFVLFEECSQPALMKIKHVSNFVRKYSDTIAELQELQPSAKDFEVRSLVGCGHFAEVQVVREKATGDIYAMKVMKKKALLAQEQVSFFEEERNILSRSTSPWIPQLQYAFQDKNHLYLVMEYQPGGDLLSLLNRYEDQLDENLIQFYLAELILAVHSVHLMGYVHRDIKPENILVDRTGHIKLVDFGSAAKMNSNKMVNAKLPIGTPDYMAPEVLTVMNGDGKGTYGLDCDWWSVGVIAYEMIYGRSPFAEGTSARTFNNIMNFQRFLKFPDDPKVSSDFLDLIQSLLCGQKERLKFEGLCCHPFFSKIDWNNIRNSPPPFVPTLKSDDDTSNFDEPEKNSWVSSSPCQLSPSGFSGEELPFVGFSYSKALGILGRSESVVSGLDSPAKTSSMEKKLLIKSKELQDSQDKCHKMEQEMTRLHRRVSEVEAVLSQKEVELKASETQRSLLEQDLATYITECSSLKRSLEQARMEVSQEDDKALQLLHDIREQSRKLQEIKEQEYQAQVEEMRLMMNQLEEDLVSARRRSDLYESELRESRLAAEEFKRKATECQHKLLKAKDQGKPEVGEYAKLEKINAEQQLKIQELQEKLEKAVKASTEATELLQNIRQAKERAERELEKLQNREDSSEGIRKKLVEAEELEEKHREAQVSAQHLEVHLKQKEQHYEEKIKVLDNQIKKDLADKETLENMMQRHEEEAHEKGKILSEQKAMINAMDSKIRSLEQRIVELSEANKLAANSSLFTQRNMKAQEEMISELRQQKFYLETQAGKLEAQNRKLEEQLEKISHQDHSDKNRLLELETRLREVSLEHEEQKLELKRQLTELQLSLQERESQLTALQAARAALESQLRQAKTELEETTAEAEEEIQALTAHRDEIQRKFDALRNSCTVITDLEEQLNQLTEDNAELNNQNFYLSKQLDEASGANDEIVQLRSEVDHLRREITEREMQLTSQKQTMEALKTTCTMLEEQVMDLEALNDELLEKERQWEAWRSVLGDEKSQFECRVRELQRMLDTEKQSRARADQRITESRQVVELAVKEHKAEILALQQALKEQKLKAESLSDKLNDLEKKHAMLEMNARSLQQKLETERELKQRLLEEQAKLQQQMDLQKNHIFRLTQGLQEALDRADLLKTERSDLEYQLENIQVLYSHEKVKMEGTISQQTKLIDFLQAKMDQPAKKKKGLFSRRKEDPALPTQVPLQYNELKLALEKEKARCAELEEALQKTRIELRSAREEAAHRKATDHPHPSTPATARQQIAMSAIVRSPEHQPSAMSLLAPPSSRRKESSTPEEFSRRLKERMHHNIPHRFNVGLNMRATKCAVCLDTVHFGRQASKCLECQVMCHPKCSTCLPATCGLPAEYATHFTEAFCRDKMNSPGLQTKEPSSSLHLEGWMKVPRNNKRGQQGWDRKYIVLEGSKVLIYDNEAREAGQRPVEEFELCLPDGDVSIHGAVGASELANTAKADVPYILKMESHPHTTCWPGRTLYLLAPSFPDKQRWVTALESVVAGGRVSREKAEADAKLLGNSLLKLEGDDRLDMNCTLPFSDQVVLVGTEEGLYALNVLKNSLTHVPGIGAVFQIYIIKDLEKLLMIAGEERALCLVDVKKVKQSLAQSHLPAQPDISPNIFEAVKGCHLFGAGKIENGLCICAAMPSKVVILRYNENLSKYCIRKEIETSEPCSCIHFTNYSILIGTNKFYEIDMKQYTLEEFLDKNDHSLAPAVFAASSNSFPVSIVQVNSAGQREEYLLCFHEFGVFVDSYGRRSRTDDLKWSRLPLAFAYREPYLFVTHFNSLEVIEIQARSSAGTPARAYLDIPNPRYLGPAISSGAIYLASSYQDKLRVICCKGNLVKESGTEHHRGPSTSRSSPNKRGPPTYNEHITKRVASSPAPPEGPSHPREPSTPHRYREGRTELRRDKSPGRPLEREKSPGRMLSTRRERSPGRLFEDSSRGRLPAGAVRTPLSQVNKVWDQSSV
Chain of CLK3 (human) (P49761 whole entry, looked up): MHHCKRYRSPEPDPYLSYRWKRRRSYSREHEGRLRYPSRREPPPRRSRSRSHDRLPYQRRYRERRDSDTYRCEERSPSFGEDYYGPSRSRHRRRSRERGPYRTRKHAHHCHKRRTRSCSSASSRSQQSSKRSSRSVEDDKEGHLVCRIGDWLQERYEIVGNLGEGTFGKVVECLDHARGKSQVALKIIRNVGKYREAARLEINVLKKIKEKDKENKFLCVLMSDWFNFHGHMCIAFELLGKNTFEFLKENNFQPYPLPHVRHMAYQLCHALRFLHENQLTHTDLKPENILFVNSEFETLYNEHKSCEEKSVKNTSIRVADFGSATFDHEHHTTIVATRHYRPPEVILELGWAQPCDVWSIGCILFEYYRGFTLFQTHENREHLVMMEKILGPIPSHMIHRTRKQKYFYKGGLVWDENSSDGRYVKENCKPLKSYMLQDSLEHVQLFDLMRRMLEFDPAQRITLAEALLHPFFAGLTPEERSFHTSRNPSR
Chain of MAP2K2 (human) (P36507 whole entry, looked up): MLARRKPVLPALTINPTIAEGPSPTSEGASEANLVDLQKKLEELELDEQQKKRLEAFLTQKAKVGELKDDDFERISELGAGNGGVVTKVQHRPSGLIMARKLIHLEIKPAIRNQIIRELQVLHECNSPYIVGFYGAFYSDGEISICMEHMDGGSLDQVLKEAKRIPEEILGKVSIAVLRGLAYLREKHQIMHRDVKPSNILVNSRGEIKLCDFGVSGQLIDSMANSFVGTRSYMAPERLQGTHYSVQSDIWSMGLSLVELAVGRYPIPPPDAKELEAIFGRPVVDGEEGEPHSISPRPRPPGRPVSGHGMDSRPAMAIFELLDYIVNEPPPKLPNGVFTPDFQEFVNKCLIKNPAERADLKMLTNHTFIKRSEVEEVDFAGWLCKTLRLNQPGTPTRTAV

Compound: O=C1Nc2ccc(I)cc2/C1=C/c1cc(Br)c(O)c(Br)c1
- kinase still bound, per cent of control (RPS6KA3 KD1 (human)): 36%
- kinase still bound, per cent of control (MYLK4 (human)): 14%
- kinase still bound, per cent of control (TEC (human)): 100%
- kinase still bound, per cent of control (ABL2 (human)): 66%
- kinase still bound, per cent of control [1]: 77%
- kinase still bound, per cent of control (MAP4K4 (human)): 4.2%
- kinase still bound, per cent of control (CIT (human)): 5.6%
- kinase still bound, per cent of control (PAK7 (human)): 87%
- kinase still bound, per cent of control (CSNK1G2 (human)): 100%
- kinase still bound, per cent of control (AXL (human)): 100%
- kinase still bound, per cent of control (STK17B (human)): 40%
- kinase still bound, per cent of control (MAPK9 (human)): 72%
- kinase still bound, per cent of control (BRSK2 (human)): 100%
- kinase still bound, per cent of control (MAP4K5 (human)): 100%
- kinase still bound, per cent of control (HCK (human)): 81%
- kinase still bound, per cent of control (CDK9 (human)): 93%
- kinase still bound, per cent of control (EPHA3 (human)): 66%
- kinase still bound, per cent of control (MAP2K2 (human)): 74%
- kinase still bound, per cent of control (IRAK3 (human)): 62%
- kinase still bound, per cent of control (CLK3 (human)): 84%
- kinase still bound, per cent of control (ERBB2 (human)): 94%
- kinase still bound, per cent of control (YES1 (human)): 90%
- kinase still bound, per cent of control (INSRR (human)): 81%
- kinase still bound, per cent of control (PRKCQ (human)): 90%
- kinase still bound, per cent of control (SRPK2 (human)): 87%
- kinase still bound, per cent of control (BLK (human)): 41%
- kinase still bound, per cent of control (NTRK3 (human)): 35%
- kinase still bound, per cent of control (MINK1 (human)): 2.8%
- kinase still bound, per cent of control (SRC (human)): 100%
- kinase still bound, per cent of control (WEE2 (human)): 94%
- kinase still bound, per cent of control (SRMS (human)): 65%
- kinase still bound, per cent of control (PRKD3 (human)): 100%
- kinase still bound, per cent of control (PRKX (human)): 100%
- kinase still bound, per cent of control (PKN1 (human)): 89%
- kinase still bound, per cent of control (PRKCE (human)): 100%
- kinase still bound, per cent of control (BMPR1B (human)): 27%
- kinase still bound, per cent of control (GAK (human)): 1.6%
- kinase still bound, per cent of control (PRKG2 (human)): 83%
- kinase still bound, per cent of control (STK33 (human)): 94%
- kinase still bound, per cent of control (STK24 (human)): 97%

Compound: CN(C)C/C=C/C(=O)Nc1cccc(Nc2ncc3c(n2)N(C)c2ccccc2C(=O)N3C)c1
- kinase still bound, per cent of control (RPS6KA3 KD1 (human)): 29%
- kinase still bound, per cent of control (MYLK4 (human)): 86%
- kinase still bound, per cent of control (TEC (human)): 97%
- kinase still bound, per cent of control (ABL2 (human)): 1.4%
- kinase still bound, per cent of control [1]: 0.75%
- kinase still bound, per cent of control (MAP4K4 (human)): 50%
- kinase still bound, per cent of control (CIT (human)): 86%
- kinase still bound, per cent of control (PAK7 (human)): 36%
- kinase still bound, per cent of control (CSNK1G2 (human)): 69%
- kinase still bound, per cent of control (AXL (human)): 7%
- kinase still bound, per cent of control (STK17B (human)): 100%
- kinase still bound, per cent of control (MAPK9 (human)): 100%
- kinase still bound, per cent of control (BRSK2 (human)): 4.2%
- kinase still bound, per cent of control (MAP4K5 (human)): 75%
- kinase still bound, per cent of control (HCK (human)): 13%
- kinase still bound, per cent of control (CDK9 (human)): 100%
- kinase still bound, per cent of control (EPHA3 (human)): 43%
- kinase still bound, per cent of control (MAP2K2 (human)): 78%
- kinase still bound, per cent of control (IRAK3 (human)): 44%
- kinase still bound, per cent of control (CLK3 (human)): 82%
- kinase still bound, per cent of control (ERBB2 (human)): 65%
- kinase still bound, per cent of control (YES1 (human)): 13%
- kinase still bound, per cent of control (INSRR (human)): 100%
- kinase still bound, per cent of control (PRKCQ (human)): 83%
- kinase still bound, per cent of control (SRPK2 (human)): 100%
- kinase still bound, per cent of control (BLK (human)): 0.7%
- kinase still bound, per cent of control (NTRK3 (human)): 16%
- kinase still bound, per cent of control (MINK1 (human)): 29%
- kinase still bound, per cent of control (SRC (human)): 0.7%
- kinase still bound, per cent of control (WEE2 (human)): 97%
- kinase still bound, per cent of control (SRMS (human)): 57%
- kinase still bound, per cent of control (PRKD3 (human)): 19%
- kinase still bound, per cent of control (PRKX (human)): 100%
- kinase still bound, per cent of control (PKN1 (human)): 69%
- kinase still bound, per cent of control (PRKCE (human)): 67%
- kinase still bound, per cent of control (BMPR1B (human)): 84%
- kinase still bound, per cent of control (GAK (human)): 13%
- kinase still bound, per cent of control (PRKG2 (human)): 81%
- kinase still bound, per cent of control (STK33 (human)): 8.9%
- kinase still bound, per cent of control (STK24 (human)): 98%

Compound: COc1cc(C(=O)NC2CCN(C)CC2)ccc1Nc1ncc2c(n1)N(C1CCCC1)C(C)CC(=O)N2C (stereo not given)
- kinase still bound, per cent of control (RPS6KA3 KD1 (human)): 100%
- kinase still bound, per cent of control (MYLK4 (human)): 100%
- kinase still bound, per cent of control (TEC (human)): 100%
- kinase still bound, per cent of control (ABL2 (human)): 100%
- kinase still bound, per cent of control [1]: 100%
- kinase still bound, per cent of control (MAP4K4 (human)): 100%
- kinase still bound, per cent of control (CIT (human)): 100%
- kinase still bound, per cent of control (PAK7 (human)): 100%
- kinase still bound, per cent of control (CSNK1G2 (human)): 100%
- kinase still bound, per cent of control (AXL (human)): 100%
- kinase still bound, per cent of control (STK17B (human)): 100%
- kinase still bound, per cent of control (MAPK9 (human)): 100%
- kinase still bound, per cent of control (BRSK2 (human)): 100%
- kinase still bound, per cent of control (MAP4K5 (human)): 100%
- kinase still bound, per cent of control (HCK (human)): 100%
- kinase still bound, per cent of control (CDK9 (human)): 100%
- kinase still bound, per cent of control (EPHA3 (human)): 100%
- kinase still bound, per cent of control (MAP2K2 (human)): 100%
- kinase still bound, per cent of control (IRAK3 (human)): 100%
- kinase still bound, per cent of control (CLK3 (human)): 100%
- kinase still bound, per cent of control (ERBB2 (human)): 100%
- kinase still bound, per cent of control (YES1 (human)): 100%
- kinase still bound, per cent of control (INSRR (human)): 26%
- kinase still bound, per cent of control (PRKCQ (human)): 100%
- kinase still bound, per cent of control (SRPK2 (human)): 100%
- kinase still bound, per cent of control (BLK (human)): 100%
- kinase still bound, per cent of control (NTRK3 (human)): 100%
- kinase still bound, per cent of control (MINK1 (human)): 100%
- kinase still bound, per cent of control (SRC (human)): 100%
- kinase still bound, per cent of control (WEE2 (human)): 100%
- kinase still bound, per cent of control (SRMS (human)): 100%
- kinase still bound, per cent of control (PRKD3 (human)): 32%
- kinase still bound, per cent of control (PRKX (human)): 100%
- kinase still bound, per cent of control (PKN1 (human)): 100%
- kinase still bound, per cent of control (PRKCE (human)): 100%
- kinase still bound, per cent of control (BMPR1B (human)): 100%
- kinase still bound, per cent of control (GAK (human)): 3.8%
- kinase still bound, per cent of control (PRKG2 (human)): 100%
- kinase still bound, per cent of control (STK33 (human)): 3.6%
- kinase still bound, per cent of control (STK24 (human)): 100%
